Measured values: ChEMBL document CHEMBL1201861, “Genomics of Drug Sensitity in Cancer screening data, Wellcome Trust Sanger Institute”

Experiments:
Assay in all cases: cells
Settings in all cases: Homo sapiens
NUGC-3 = type: functional, cell-based;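 further: growth inhibition of human NUGC-3 cells, read out with a cell viability assay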
Description: SANGER: Inhibition of human NUGC-3 cell growth in a cell viability assay.

GCT = type: functional, cell-based;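 further: GCT cell line proliferation inhibition, read out with a cell viability assay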
Description: SANGER: Inhibition of human GCT cell growth in a cell viability assay.

MDA-MB-231 = type: functional, cell-based
Description: SANGER: Inhibition of human MDA-MB-231 cell growth in a cell viability assay.

HuO-3N1 = type: functional, cell-based;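 further: cell viability readout used to measure how strongly compounds suppress proliferation of human HuO-3N1 cells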
Description: SANGER: Inhibition of human HuO-3N1 cell growth in a cell viability assay.

CAKI-1 = type: functional, cell-based;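 further: growth inhibition of CAKI-1 cells, measured by a cell viability assay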
Description: SANGER: Inhibition of human CAKI-1 cell growth in a cell viability assay.

EFO-27 = type: functional, cell-based;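 further: growth inhibition of EFO-27 cells, read out with a cell viability assay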
Description: SANGER: Inhibition of human EFO-27 cell growth in a cell viability assay.

UMC-11 = type: functional, cell-based;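 further: growth inhibition of UMC-11 cells, read out with a cell viability assay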
Description: SANGER: Inhibition of human UMC-11 cell growth in a cell viability assay.

NCI-H2342 = type: functional, cell-based;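 further: growth inhibition of the cancer cell line, determined with a cell viability assay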
Description: SANGER: Inhibition of human NCI-H2342 cell growth in a cell viability assay.

HuCCT-1 = type: functional, cell-based, HuCCT1;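 further: growth inhibition of HuCCT-1 cells, read out by a cell viability assay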
Description: SANGER: Inhibition of human HuCCT1 cell growth in a cell viability assay.

T98G = type: functional, cell-based;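 further: growth inhibition of T98G cells, read out by a cell viability assay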
Description: SANGER: Inhibition of human T98G cell growth in a cell viability assay.

NCI-H292 = type: functional, cell-based;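 further: growth inhibition of NCI-H292 cells, read out with a cell viability assay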
Description: SANGER: Inhibition of human NCI-H292 cell growth in a cell viability assay.

EFM-19 = type: functional, cell-based;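 further: growth inhibition of human EFM-19 cells, measured in a cell viability assay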
Description: SANGER: Inhibition of human EFM-19 cell growth in a cell viability assay.

SCC-25 = type: functional, cell-based;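 further: growth inhibition of SCC-25 cells, measured with a cell viability assay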
Description: SANGER: Inhibition of human SCC-25 cell growth in a cell viability assay.

G-402 = type: functional, cell-based
Description: SANGER: Inhibition of human G-402 cell growth in a cell viability assay.

A204 = type: functional, cell-based;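 further: growth inhibition of human A204 cells, read out with a cell viability assay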
Description: SANGER: Inhibition of human A204 cell growth in a cell viability assay.

KYSE-70 cell line = type: functional, cell-based;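 further: cell viability assay read-out, with IC50 expressing suppression of KYSE-70 cell growth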
Description: SANGER: Inhibition of human KYSE-70 cell growth in a cell viability assay.

SNU-387 = type: functional, cell-based
Description: SANGER: Inhibition of human SNU-387 cell growth in a cell viability assay.

KYSE-410 = type: functional, cell-based;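 further: growth inhibition of KYSE-410 cells, measured through a cell viability readout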
Description: SANGER: Inhibition of human KYSE-410 cell growth in a cell viability assay.

CHP-212 = type: functional, cell-based
Description: SANGER: Inhibition of human CHP-212 cell growth in a cell viability assay.

BHT-101 = type: functional, cell-based
Description: SANGER: Inhibition of human BHT-101 cell growth in a cell viability assay.

COR-L105 = type: functional, cell-based;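 further: cell growth inhibition determined with a viability assay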
Description: SANGER: Inhibition of human COR-L105 cell growth in a cell viability assay.

HT-29 = type: functional, cell-based;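 further: growth inhibition of human HT-29 cells, read out by a cell viability assay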
Description: SANGER: Inhibition of human HT-29 cell growth in a cell viability assay.

8505C = type: functional, cell-based
Description: SANGER: Inhibition of human 8505C cell growth in a cell viability assay.

MFE-280 = type: functional, cell-based;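 further: growth inhibition of MFE-280 cells, determined with a cell viability readout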
Description: SANGER: Inhibition of human MFE-280 cell growth in a cell viability assay.

NCI-H2087 = type: functional, cell-based;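 further: growth inhibition determined with a cell viability readout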
Description: SANGER: Inhibition of human NCI-H2087 cell growth in a cell viability assay.

SW48 = type: functional, cell-based;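 further: growth inhibition of SW48 cells, read out with a cell viability assay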
Description: SANGER: Inhibition of human SW48 cell growth in a cell viability assay.

LCLC-97TM1 = type: functional, cell-based;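 further: cell viability assay measuring growth inhibition of human LCLC-97TM1 cells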
Description: SANGER: Inhibition of human LCLC-97TM1 cell growth in a cell viability assay.

D-392MG = type: functional, cell-based
DMS-273 = type: functional, cell-based
Description: SANGER: Inhibition of human DMS-273 cell growth in a cell viability assay.

SW780 = type: functional, cell-based;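 further: growth inhibition of the cells, read out with a cell viability assay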
Description: SANGER: Inhibition of human SW780 cell growth in a cell viability assay.

DoTc2-4510 = type: functional, cell-based
EFO-21 = type: functional, cell-based;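 further: growth inhibition of EFO-21 cells measured with a viability assay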
Description: SANGER: Inhibition of human EFO-21 cell growth in a cell viability assay.

SW1990 = type: functional, cell-based;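 further: cell growth inhibition determined with a viability assay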
Description: SANGER: Inhibition of human SW1990 cell growth in a cell viability assay.

VM-CUB-1 = type: functional, cell-based;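 further: cell viability assay measuring growth inhibition of the human VM-CUB-1 cell line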
Description: SANGER: Inhibition of human VM-CUB-1 cell growth in a cell viability assay.

HCT-116 = type: functional, cell-based
Description: SANGER: Inhibition of human HCT-116 cell growth in a cell viability assay.

NCI-H1755 = type: functional, cell-based;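 further: cell viability readout used to measure growth inhibition of NCI-H1755 cells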
Description: SANGER: Inhibition of human NCI-H1755 cell growth in a cell viability assay.

NCI-H2030 = type: functional, cell-based;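 further: growth inhibition of human NCI-H2030 cells, read out by a cell viability assay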
Description: SANGER: Inhibition of human NCI-H2030 cell growth in a cell viability assay.

NCI-H2405 = type: functional, cell-based;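 further: growth inhibition of the human cell line, read out with a cell viability assay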
Description: SANGER: Inhibition of human NCI-H2405 cell growth in a cell viability assay.

S-117 = type: functional, cell-based
Description: SANGER: Inhibition of human S-117 cell growth in a cell viability assay.

RD = type: functional, cell-based
Description: SANGER: Inhibition of human RD cell growth in a cell viability assay.

A-427 = type: functional, cell-based;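 further: growth inhibition of human A-427 cells, read out by a cell viability assay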
Description: SANGER: Inhibition of human A427 cell growth in a cell viability assay.

HMV-2 cell line = type: functional, cell-based;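 further: growth inhibition of HMV-II cells, read out with a cell viability assay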
Description: SANGER: Inhibition of human HMV-II cell growth in a cell viability assay.

Measured: IC50

CS(=O)(=O)N1CCN(Cc2cc3nc(-c4cccc5[nH]ncc45)nc(N4CCOCC4)c3s2)CC1 [PICTILISIB]
974 nM: NCI-H292
2180 nM: CHP-212
2860 nM: DMS-273
2240 nM: NCI-H2030
3160 nM: SNU-387
914 nM: SCC-25
1990 nM: T98G
1620 nM: EFM-19
545 nM: BHT-101
2690 nM: LCLC-97TM1
642 nM: HuO-3N1
522 nM: A204
1900 nM: G-402
418 nM: MFE-280
not listed: HMV-2 cell line
> 4000 nM: all other assays above

O=C(NCCCNc1nc(Nc2cccc(NC(=O)N3CCCC3)c2)ncc1I)c1cccs1 [BX-795]
1580 nM: BHT-101
2580 nM: NCI-H292
2390 nM: T98G
3800 nM: 8505C
2600 nM: HuO-3N1
4680 nM: NCI-H2405
1740 nM: A-427
3810 nM: SNU-387
4990 nM: HCT-116
1140 nM: CHP-212
1150 nM: A204
2020 nM: SW48
3260 nM: SW780
2540 nM: NCI-H1755
2900 nM: UMC-11
2280 nM: CAKI-1
2040 nM: VM-CUB-1
2570 nM: MFE-280
1470 nM: G-402
> 5000 nM: all other assays above

O=C1NC(=O)c2c1c(-c1ccccc1Cl)cc1[nH]c3ccc(O)cc3c21
454 nM: NCI-H292
1180 nM: SW1990
1290 nM: NCI-H2030
1560 nM: KYSE-410
619 nM: CHP-212
not listed: 8505C
> 2000 nM: all other assays above

CN(C)CCOc1ccc(-c2nc(-c3ccncc3)c(-c3ccc4c(c3)CC/C4=N\O)[nH]2)cc1 [SB590885]
4380 nM: NCI-H292
1630 nM: BHT-101
not listed: HMV-2 cell line
> 5000 nM: all other assays above

NC1(c2ccc(-c3nc4ccn5c(=O)[nH]nc5c4cc3-c3ccccc3)cc2)CCC1 [MK-2206]
2840 nM: A204
965 nM: MFE-280
3710 nM: G-402
530 nM: BHT-101
2390 nM: VM-CUB-1
1800 nM: COR-L105
1520 nM: DMS-273
1880 nM: SNU-387
440 nM: EFM-19
not listed: NCI-H2030 | HMV-2 cell line
> 4000 nM: all other assays above

CC1(C)CCC(c2ccc(Cl)cc2)=C(CN2CCN(c3ccc(C(=O)NS(=O)(=O)c4ccc(N[C@H](CCN5CCOCC5)CSc5ccccc5)c(S(=O)(=O)C(F)(F)F)c4)cc3)CC2)C1 [NAVITOCLAX]
1400 nM: NCI-H2342
759 nM: RD
930 nM: A-427
> 2000 nM: all other assays above
